Source: PMC11671014 (PLOS Pathogens, 2024)
Where two headings read alike, the source gives them in different places.

B1: Plasmodium falciparum cytoplasmic tyrosine tRNA synthetase (enzyme, P. falciparum)
chain: METTDTKREEQEIEEKKAQEESKIEDVDKILNDILSISSECIQPDELRVKLLLKRKLICYDGFEPSGRMHIAQGLLKSIIVNKLTSNGCTFIFWIADWFAHLNNKMSGDLKKIKKVGSYFIEVWKSCGMNMENVQFLWASEEINKKPNEYWSLVLDISRSFNINRMKRCLKIMGRSEGEENYCSQILYPCMQCADIFFLNVDICQLGIDQRKVNMLAREYCDIKKIKKKPVILSHGMLPGLLEGQEKMSKSDENSAIFMDDSESDVNRKIKKAYCPPNVIENNPIYAYAKSIIFPSYNEFNLVRKEKNGGDKTYYTLQELEHDYVNGFIHPLDLKDNVAMYINKLLQPVRDHFQNNIEAKNLLNEIKKYKVTK
notes: Plasmodium falciparum cytoplasmic tyrosine tRNA synthetase; also called PfTyrRS; His-PfTyrRS; source: E. coli BL21(DE3), purified (HisTrap HP, TEV cleavage, second HisTrap HP, Superdex 200 gel filtration)

Experiments:
[1] = target: T1, PfTyrRS (Plasmodium falciparum, UniProt Q8IAR7); assay: ATP consumption by PfTyrRS (Kinase Glo); assay type: biochemical; details: PfTyrRS 25 nM, ATP 10 μM, tyrosine 200 μM, cognate tRNA^Tyr 4.8 μM, 37°C 1 h; read-out: Inhibition of PfTyrRS (Kinase Glo) IC50
Method: Consumption of ATP was measured using a luciferase-based assay as per the manufacturer’s instructions (Kinase-Glo Luminescent Kinase Assay, Promega).

[2] = target: T1, PfTyrRS; assay: Differential scanning fluorimetry (DSF) of PfTyrRS; assay type: binding; details: for ΔTm at 50 µM: 50 μM sulfamate, tyrosine, PftRNA^Tyr, 37°C 2 h, read-out: PfTyrRS binding (DSF) Delta Tm; for ΔTm at 50 µM / PfTyrRS Tm: ATP; for Kd: estimated from DSF with an irreversible thermal unfolding model, read-out: PfTyrRS binding (DSF) apparent KD; for PfTyrRS Tm: with sulfamate, tyrosine and tRNA, apo 49.9 ± 0.6
Method: The effect on ML471 and analogues on the thermal stability of TyrRS enzymes was assayed as previously described. […] SYPRO Orange (Sigma-Aldrich; 5,000X concentrate in DMSO) was added to the reaction mixture at a final concentration of 5X. 25 μL of the sample was added into each well of a 96-well qPCR plate (Applied Biosystems). The plate was sealed and analysed using StepOnePlus Real-Time PCR system (Applied Biosystems). The samples were heated from 20°C to 90°C with a 1% continuous gradient. The thermal unfolding curve was plotted as the first derivative curve of the raw fluorescence values. The melting temperature (Tm), defined as the peak of the first derivative curve, was used to assess the thermal stability of protein-ligand complexes.

[3] = system: HepG2 cells; assay: HepG2 72-h viability, CellTiter-Glo; assay type: cell-based; details: Homo sapiens, 72 h exposure
Method: The HepG2 (Human hepatocyte carcinoma) cell line was procured from ATCC (American Type Culture Collection, Manassas, USA; HB-8065) and viability assessed using CellTiter-Glo luminescent cell viability assay reagents (Promega). For the assay, 2,000 cells/well were plated in 384-well plates 24 h prior to the experiment and incubated at 37°C in a CO2 incubator. The medium was removed; and cells were treated with fresh medium containing either vehicle (0.5% DMSO) or serially diluted compounds or doxorubicin (1.3 nM to 25 μM) in a final volume of 50 μL/well and further incubated for 72 h at 37°C in a CO2 incubator. […] Following incubation, 25 μL of medium was discarded and 25 μl of CellTiter-Glo reagent was added to each well and the plate was kept on a plate shaker for 15 min at 25°C with shaking at 300 rpm. Luminescence signals were measured in a PHERAstar FSX reader (BMG LABTECH).

[4] = system: P. falciparum (3D7, ring stage) cultures; assay: P. falciparum 3D7 72-h growth inhibition, lactate dehydrogenase (PfLDH) assay; assay type: cell-based; details: Plasmodium falciparum, 72 h exposure
Method: Routine analyses of antimalarial activity against P. falciparum 3D7 was tested by TCGLS (Kolkata, India) using the lactate dehydrogenase (PfLDH) growth inhibition assay as previously described. […] P. falciparum strain (3D7) was obtained from BEI Resources.

[5] = system: Pf3D7-pfs16-CBG99 gametocytes, immature (stage II/III) and mature (stage V); assay: Gametocyte killing assay (luciferase); assay type: cell-based; details: Plasmodium falciparum, 48 h
Method: Gametocytogenesis was induced on a tightly synchronised (>97% rings) asexual parasite culture (Pf3D7-pfs16-CBG99 (kind gift from Pietro Alano), 0.5% parasitemia and 6% hematocrit) with a combination of nutrient starvation and a decrease in hematocrit, as previously described. For immature gametocytes (>90% stage II/III), cultures were exposed to 50 mM N-acetyl glucosamine (NAG) on days 1–4 to eliminate residual asexual parasites and harvested at days 5–6. For mature (>95% stage V) gametocytes, NAG treatment occurred from days 3–7 and harvest at day 13. Stage II/III and V gametocyte cultures (2 % gametocytaemia 1.5 % haematocrit, 150 μL/well) were exposed to compounds and incubated at 37°C for 48 h under hypoxic conditions, after which luciferase activity was determined with a non-lysing D-luciferin substrate (1mM in 0.1M citrate buffer, pH 5.5, 100 μL) and bioluminescence was detected with a 2 s integration time with a GloMax-Multi Detection System with Instinct software.

[6] = system: Primary hepatocytes; assay: Toxicity to primary hepatocyte host cells in the liver stage assay; assay type: cell-based, human; details: Homo sapiens, Hepatocyte, host cells of the NF135 experiment
Method: (§1) Activity against liver stage parasites was performed using a modification of published procedures. Briefly, cryopreserved human primary hepatocytes (NF175: H1500.H15B+ Lot No. HC0-6, TebuBio or NF135: F00995-P Lot No. IRZ, BioIVT) were thawed and seeded at 18,000 cells per well in collagen-coated 384-well microtiter plates in medium containing 10% heat inactivated fetal bovine serum (hiFBS). Cells were cultured at 37°C in 5% CO2. For NF175, medium was replaced by fresh medium containing 10% hiFBS, 5 h post plating. For NF135, medium was replaced by medium containing 0.2% BSA, 24 h post plating. 48 h post plating, salivary glands from Plasmodium-NF175 or NF135-infected Anopheles stephensi mosquitoes were dissected, added to the hepatocytes (10,000 per well/ NF175; or 12,500 per well/ NF135) and allowed to infect for 3 hours. Sporozoites were then aspirated, and compounds diluted in medium containing 10% hiFBS or 0.2% BSA, were added to the hepatocytes. Medium containing 10% hiFBS or 0.2% BSA and compounds was refreshed daily for four days. Hepatocytes were fixed with ice-cold methanol and samples were blocked with 10% hiFBS in PBS. Schizonts were stained with rabbit anti-HSP70 in 10% hiFBS for 1–2 h followed by incubation with a mixture of secondary goat anti-rabbit AlexaFluor 594 antibody and 4′,6-diamidine-2′-phenylindole dihydrochloride (DAPI) in 10% hiFBS for 30 min. Samples were washed with PBS containing 0.05% Tween 20 between different steps. Cells were imaged on a PicoExpress high content imager, and images were analysed automatically using CellReporterXpress software. Data were analysed by logistic regression using a four-parameter (Hill equation) model and a least-squares method to find the best fit.

[7] = system: P. falciparum liver stage schizont (NF135); assay: Liver stage schizont assay in primary human hepatocytes (NF135); assay type: cell-based; details: Plasmodium falciparum, Hepatocyte, 96 h, four days
Method: as §1

[8] = system: P. falciparum (strain 3D7A); assay: Parasite Reduction Rate (PRR) estimation; assay type: cell-based, Plasmodium falciparum; details: 10 x IC50
Method: PRR was assessed using a standardized method. P. falciparum (strain 3D7A, MRA-151), contributed by David Walliker, was obtained through BEI Resources, NIAID, NIH. Cultures of parasites (~90% ring stage) were treated with compounds for 120 h, with daily renewal. Samples of parasites were taken at 0, 24, 48, 72, 96 and 120 h. Compounds were washed out and four independent 3-fold serial dilutions were established in 96-well plates, with fresh RBCs and culture medium. After 18 days, and again at 22 days, samples were taken to examine growth using SYBR Green I in an EnVision Multilabel Plate Reader (Perkin Elmer) and analysed using Excel and Grafit 5.0 software. The human biological samples were sourced ethically, and their research use was in accord with the terms of the informed consents under an IRB/EC approved protocol.

[9] = target: the molecule itself; assay: crystal structure; PfTyrRS (10 mg/mL) with 500 uM synthetic Tyr-ML471; sitting drop vapour diffusion at 20°C, 2.25 M sodium malonate pH 6; refined at 1.8 Å
[10] = read-out: Early stage gametocytes IC50
[11] = read-out: Mature stage gametocytes IC50

Row | Molecule | IC50 [1] | ΔTm at 50 µM [2] | Kd [2] | PfTyrRS Tm [2] | IC50 [3] | IC50 [4] | IC50 [5, 10] | IC50 [5, 11] | other results
1 | CC(=O)c1nn([C@@H]2O[C@H](COS(N)(=O)=O)[C@@H](O)[C@H]2O)c2ncnc(N)c12 [ML111] | 34000 ± 14000 nM | 15.1 ± 0.2 °C | 0.7 nM | 65.0 ± 0.5 °C | > 50000 nM | 4.3 ± 0.7 nM | – | – | –
2 | Nc1ncnc2c1c(C1CC1)nn2[C@@H]1O[C@H](COS(N)(=O)=O)[C@@H](O)[C@H]1O [ML864] | 8500 ± 4500 nM | 17 ± 0.1 °C | 0.3 nM | 66.9 ± 0.5 °C | 21300 nM | 2.5 ± 0.6 nM | – | – | –
3 | CS(=O)(=O)c1ccc(-c2cnc(N)c(-c3ccc(C(F)(F)F)nc3)c2)cc1 [MMV390048, reference compound] | – | – | – | – | – | – | 138 ± 8 nM | 150 ± 20 nM | IC50 [6]: > 100 nM; IC50 [7]: 23.3 ± 13.3 nM
4 | CN(C)c1ccc2nc3ccc(=[N+](C)C)cc-3sc2c1 [Methylene blue, reference compound] | – | – | – | – | – | – | 62 ± 11 nM | 353 ± 63 nM | –
5 | CCc1nc(N)nc(N)c1-c1ccc(Cl)cc1 [Pyrimethamine, reference compound] | – | – | – | – | – | – | – | – | Lag phase [8]: 24 h; Log PRR [8]: 3.7; PCT99.9% [8]: 56 h; Slope [8]: -0.078
6 | B1 | – | – | – | – | – | – | – | – | stoichiometry N [9]: 2
